In US12612412B2, “Antiviral heterocyclic compounds” (Enanta Pharmaceuticals, Inc., priority 2021, dated 2026) one finds EC50 data, which are given here for 31 molecules.

Assay [1] has as its system genotype A, "Long" strain RSV. As to the kind of experiment: RSV-A assay (CPE protection in Hep-2 cells, ATPlite readout). Format: cell-based, Human respiratory syncytial virus (HRSV). The note with it: human respiratory syncytial virus, MOI 0.1, CPE protection. The method, boiled down:
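ATPlite luminescence (cellular ATP) served as the measure of cell health after 5 days of infection. Hep-2 cells at 8,000 per well received duplicate 2-fold compound dilutions plus virus at MOI 0.1, and EC50 was calculated from CPE protection.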
In general terms: Cellular ATP, detected with luciferase, serves as a proxy for viable cell number.

Assay [2] concerns HMPV clinical isolate TN/1501/A1. As to the kind of experiment: HMPV antiviral assay Method-B (clinical isolate TN/1501/A1 in LLC-MK2 cells, ATP-Lite readout). Format: cell-based, Human metapneumovirus (HMPV). The note with it: hMPV WT1501 (clinical isolate TN/1501/A1), 6 days. The method, boiled down:
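LLC-MK2 cells infected in suspension with TN/1501/A1 at MOI 0.014 in serum-free medium with 2 μg/mL TPCK-trypsin (final), incubated 6 days at 37° C. Compounds tested in duplicate, 10-point 3-fold dilutions from 10 μM. Cell health read by ATP-Lite luminescence, normalised to virus-only and cells-only controls; EC50 by four-parameter logistic fit.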

The mark [3] stands for this setting: RSV-A Long strain, read-out: Human RSV-A (“Long”) EC50.
[4] abbreviates: human metapneumovirus, LLC-MK2, 144 h.
[5] abbreviates: genotype A “Long” strain RSV, read-out: Human RSV-A (“Long”).

Where two headings read alike, the source gives them in different places.

On to `C[C@]1(C(N)=O)COc2c1cc([C@@](O)(CNC(=O)c1cc(OC3CC3)c3nn(C4(F)CC4)cc3c1)C1CC1)nc2-c1ccc2c(c1)OC(F)(F)O2` [Example 846], for which the EC50 in assay [1] (setting [3]) was under 0.2 µM; in assay [2] (setting [4]) it was under 0.5 µM.

For the molecule `C[C@]1(C(N)=O)COc2c1cc([C@@](O)(CNC(=O)c1cc(OCCF)c3nn(C4(F)CC4)cc3c1)C(F)(F)F)nc2-c1cc(Cl)c(F)cc1F` [Example 618], the values for the EC50 in assay [1] (setting [5]) and in assay [2] (setting [4]) were under 0.2 µM and under 0.5 µM, respectively.

As for `COc1cc(C(=O)NC[C@](O)(c2cc3c(c(-c4ccc5c(c4)OC(F)(F)O5)n2)OC[C@]3(C)C(N)=O)C(F)(F)F)cc2cn(C3(F)CC3)nc12` [Example 837], the EC50 was under 0.2 µM in assay [1] (setting [3]) and under 0.5 µM in assay [2] (setting [4]).

`Cc1cnc2c(OCC(F)F)cc(C(=O)NC[C@](O)(c3cc4c(c(-c5ccc(F)cc5)n3)OC[C@]4(C)C(N)=O)C3CC3)cc2c1` [Example 498]: the EC50 in assay [1] (setting [5]) is under 0.2 µM; in assay [2] (setting [4]), under 0.5 µM.

For `C[C@]1(C(N)=O)COc2c1cc([C@@](O)(CNC(=O)c1ccc3nn(C4CC4)cc3c1)C(F)(F)F)nc2-c1cc(F)c(F)cc1F` [Example 1139], the figures for the EC50 in assay [1] (setting [3]) and in assay [2] (setting [4]) were under 0.2 µM and under 0.5 µM, respectively.

Regarding `COc1cc(C(=O)NC[C@](O)(c2cc3c(c(-c4cccc(OC(F)F)c4)n2)OC[C@]3(C)C(N)=O)C(F)(F)F)cc2cn(C3CC3)nc12` [Example 918], the EC50 in assay [1] (setting [3]) is under 0.2 µM; in assay [2] (setting [4]), over 0.5 µM.

As to `COc1cc(C(=O)NC[C@](O)(c2cc3c(c(-c4ccc(F)c(Cl)c4F)n2)OC[C@]3(C)C(N)=O)C2CC2)cc2cc(Cl)c(C)nc12` [Example 557], the EC50 in assay [1] (setting [5]) is under 0.2 µM; in assay [2] (setting [4]), under 0.5 µM.

In the case of `COc1cc(C(=O)NC[C@](O)(c2cc3c(c(-c4ccc5c(c4)OC(F)(F)O5)n2)OC[C@]3(C)C(N)=O)C2CC2)cc2c(F)n(C3CC3)nc12` [Example 650], the EC50 in assay [1] (setting [5]) is under 0.2 µM; in assay [2] (setting [4]), under 0.5 µM.

Consider `COc1cc(C(=O)NC[C@](O)(c2cc3c(c(-c4c(F)ccc(Cl)c4F)n2)OC[C@]3(C)C(N)=O)C2CC2)cc2cn(C3(F)CC3)nc12` [Example 1165], for which the EC50 was under 0.2 µM in assay [1] (setting [3]) and under 0.5 µM in assay [2] (setting [4]).

In the case of `Cc1cnc2c(OC(F)F)cc(C(=O)NC[C@](O)(c3cc4c(c(-c5ccc(F)cc5Cl)n3)OC[C@]4(C)C(N)=O)C3(F)CC3)cc2c1` [Example 733], the results for the EC50 in assay [1] (setting [5]) and in assay [2] (setting [4]) were under 0.2 µM and under 0.5 µM, respectively.

For the molecule `COc1cc(C(=O)NC[C@@](O)(c2cc3c(c(-c4cccc(OC(F)F)c4)n2)OC[C@]3(C)C(N)=O)C(F)(F)F)cc2cn(C3CC3)nc12` [Example 917], the EC50 in assay [1] (setting [3]) was under 0.2 µM; in assay [2] (setting [4]), over 0.5 µM.

For the molecule `CC[C@](O)(CNC(=O)c1cc(OC)c2nc(C)c(Cl)cc2c1)c1cc2c(c(-c3ccc(F)cc3)n1)OC[C@]2(C)C(N)=O` [Example 643], the figures for the EC50 in assay [1] (setting [5]) and in assay [2] (setting [4]) were under 0.2 µM and under 0.5 µM, respectively.

For `COc1cc(C(=O)NC[C@@](O)(c2cc3c(c(-c4ccc(OC(F)F)cc4)n2)OC[C@]3(C)C(N)=O)C(F)(F)F)cc2cn(C3CC3)nc12` [Example 925], the EC50 is under 0.2 µM in assay [1] (setting [3]) and over 0.5 µM in assay [2] (setting [4]).

`COc1cc(C(=O)NC[C@](O)(c2cc3c(c(-c4ccc(F)cc4)n2)OC[C@]3(C)C(N)=O)C2(F)CC2)cc2cn(C3(F)CC3)nc12` [Example 756]: the EC50 was under 0.2 µM in assay [1] (setting [5]) and under 0.5 µM in assay [2] (setting [4]).

On to `Cc1nc2c(Cl)cc(C(=O)NC[C@](O)(c3cc4c(c(-c5ccc(F)c(Cl)c5)n3)OC[C@]4(C)C(N)=O)C3CC3)cc2cc1Cl` [Example 500], for which the results for the EC50 in assay [1] (setting [5]) and in assay [2] (setting [4]) were under 0.2 µM and under 0.5 µM, respectively.

Consider `Cc1cnc2c(Cl)cc(C(=O)NC[C@](O)(c3cc4c(c(-c5ccc(F)cc5)n3)OC[C@]4(C)C(N)=O)C3(F)CC3)cc2c1` [Example 738], for which the EC50 in assay [1] (setting [5]) is under 0.2 µM; in assay [2] (setting [4]), under 0.5 µM.

As for `COc1cc(C(=O)NC[C@](O)(c2cc3c(c(-c4csc5c(F)cccc45)n2)OC[C@]3(C)C(N)=O)C2CC2)cc2cn(C3(F)CC3)nc12` [Example 604], the EC50 is under 0.2 µM in assay [1] (setting [5]) and under 0.5 µM in assay [2] (setting [4]).

For the molecule `Cc1cnc2c(OC(F)F)cc(C(=O)NC[C@](O)(c3cc4c(c(-c5ccc(F)c(Cl)c5)n3)OC[C@]4(C(N)=O)C(F)F)C(F)(F)F)cc2c1` [Example 1008], the EC50 was over 0.2 µM in assay [1] (setting [3]) and over 0.5 µM in assay [2] (setting [4]).

Take `C[C@]1(C(N)=O)COc2c1cc([C@@](O)(CNC(=O)c1ccc3nn(C4CC4)cc3c1)C1CC1)nc2-c1cc(Br)c(F)cc1F` [Example 1095]: the figures for the EC50 in assay [1] (setting [3]) and in assay [2] (setting [4]) were under 0.2 µM and under 0.5 µM, respectively.

On to `COc1cc(C(=O)NC[C@](O)(c2cc3c(c(-c4ccc(F)cc4)n2)OC[C@]3(C)C(N)=O)C(F)(F)F)cc2c(C)onc12` [Example 888], for which the EC50 was under 0.2 µM in assay [1] (setting [3]) and over 0.5 µM in assay [2] (setting [4]).

On to `COc1cc(C(=O)NC[C@](O)(c2cc3c(c(-c4cc(Cl)c(F)cc4F)n2)OC[C@]3(C)C(N)=O)C(F)(F)F)cc2cn(C3CC3)nc12` [Example 952], for which the EC50 was under 0.2 µM in assay [1] (setting [3]) and under 0.5 µM in assay [2] (setting [4]).

For the molecule `C[C@]1(C(N)=O)COc2c1cc([C@@](O)(CNC(=O)c1cc(Cl)c3nn(C4CC4)cc3c1)C1CC1)nc2-c1ccc(C(F)(F)F)cc1` [Example 795], the EC50 in assay [1] (setting [5]) was under 0.2 µM; in assay [2] (setting [4]) it was over 0.5 µM.

`COc1cc(C(=O)NC[C@](O)(c2cc3c(c(-c4ccc(F)c(Cl)c4)n2)OC[C@]3(C)C(N)=O)C2CC2)cc2cc(C3CC3)nn12` [Example 703]: the figures for the EC50 in assay [1] (setting [5]) and in assay [2] (setting [4]) were under 0.2 µM and under 0.5 µM, respectively.

Turning to `Cc1cnc2c(Cl)cc(C(=O)NC[C@](O)(c3cc4c(c(-c5cc(F)c(F)cc5F)n3)OC[C@]4(C)C(N)=O)C(F)(F)F)cc2c1` [Example 1141], the EC50 was under 0.2 µM in assay [1] (setting [3]) and under 0.5 µM in assay [2] (setting [4]).

For `Cc1cnc2c(Cl)cc(C(=O)NC[C@](O)(c3cc4c(c(-c5cc(F)c(Cl)cc5F)n3)OC[C@]4(C)C(N)=O)C3CC3)cc2c1` [Example 1181], the results for the EC50 in assay [1] (setting [3]) and in assay [2] (setting [4]) were under 0.2 µM and under 0.5 µM, respectively.

As for `COc1cc(C(=O)NC[C@](O)(c2cc3c(c(-c4ccc(F)c(F)c4Cl)n2)OC[C@]3(C)C(N)=O)C2(F)CC2)cc2cc(Cl)c(C)nc12` [Example 747], the figures for the EC50 in assay [1] (setting [5]) and in assay [2] (setting [4]) were under 0.2 µM and under 0.5 µM, respectively.

With `COc1cc(C(=O)NC[C@](O)(c2cc3c(c(-c4ccc(F)cc4F)n2)OC[C@]3(C)C(N)=O)C(F)(F)F)cc2cn(C3CC3)nc12` [Example 901], the EC50 in assay [1] (setting [3]) is under 0.2 µM; in assay [2] (setting [4]), under 0.5 µM.

In the case of `COc1cc(C(=O)NC[C@](O)(c2cc3c(c(-c4cc(Br)c(F)cc4F)n2)OC[C@]3(C)C(N)=O)C(F)(F)F)cc2cn(C3CC3)nc12` [Example 1223], the EC50 is under 0.2 µM in assay [1] (setting [3]) and under 0.5 µM in assay [2].

For `COc1cc(C(=O)NC[C@](O)(c2nc(-c3ccc4c(c3)OC(F)(F)O4)c3c(c2F)[C@@](C)(C(N)=O)CO3)C2CC2)cc2cn(C(F)F)nc12` [Example 860], the EC50 is under 0.2 µM in assay [1] (setting [3]) and under 0.5 µM in assay [2] (setting [4]).

For `COc1cc(C(=O)NC[C@](O)(c2cc3c(c(-c4ccc5c(c4)OC(F)(F)O5)n2)OC[C@@]3(C(N)=O)C(F)F)C(F)(F)F)cc2cn(C3CC3)nc12` [Example 1035], the EC50 in assay [1] (setting [3]) is under 0.2 µM; in assay [2] (setting [4]), under 0.5 µM.

On to `COc1cc(C(=O)NC[C@](O)(c2cc3c(c(-c4ccc5c(c4)OC(F)(F)O5)n2)OC[C@]3(C)C(N)=O)C2CC2)cc2cn(C(F)F)nc12` [Example 823], for which the EC50 in assay [1] (setting [5]) is under 0.2 µM; in assay [2] (setting [4]), under 0.5 µM.
